Source: PubChem BioAssay AID330 (DTP/NCI, 2004)
Values joined by “and” are separate entries in the source; they are usually repeats but may differ in a detail not shown here. Equal entries are not always repeated. Toxic doses and inconclusive results are not listed. The calls were made as follows: active = survival T/C of 150% or more; inactive = T/C below 125% in these data.

System: P388 leukemia ip, CD2F1 mice, survival T/C
Experiment: NCI In Vivo Anticancer Drug Screen. Data for tumor model P388 Leukemia (intraperitoneal) in CD2F1 (CDF1) mice
Conditions: endpoint: median survival time, higher = longer survival
Method in brief: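 Mice carrying the transplanted tumor received test compound or vehicle. Survival was recorded in each group, and the value is the treated-group measurement divided by that of the vehicle-treated control group.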

[1] = dose: 50.0 mg/kg/injection, schedule: Q01DX005 (ip), vehicle: Klucel (hydroxypropylcellulose) (HPC)
[2] = dose: 100.0 mg/kg/injection, schedule: Q01DX005 (ip), vehicle: Klucel (hydroxypropylcellulose) (HPC)
[3] = dose: 200.0 mg/kg/injection, schedule: Q01DX005 (ip), vehicle: Klucel (hydroxypropylcellulose) (HPC)
[4] = dose: 50.0 mg/kg/injection, schedule: Q01DX005 (ip), vehicle: saline with Tween-80
[5] = dose: 100.0 mg/kg/injection, schedule: Q01DX005 (ip), vehicle: saline with Tween-80
[6] = dose: 200.0 mg/kg/injection, schedule: Q01DX005 (ip), vehicle: saline with Tween-80
[7] = dose: 60.0 mg/kg/injection, schedule: Q01DX005 (ip), vehicle: Klucel (hydroxypropylcellulose) (HPC)
[8] = dose: 100.0 mg/kg/injection, schedule: Q04DX003 (ip), vehicle: saline
[9] = dose: 50.0 mg/kg/injection, schedule: Q01DX009 (ip), vehicle: saline with Tween-80
[10] = dose: 100.0 mg/kg/injection, schedule: Q01DX009 (ip), vehicle: saline with Tween-80
[11] = dose: 6.25 mg/kg/injection, schedule: Q01DX009 (ip), vehicle: saline with Tween-80
[12] = dose: 12.5 mg/kg/injection, schedule: Q01DX009 (ip), vehicle: saline with Tween-80
[13] = dose: 25.0 mg/kg/injection, schedule: Q01DX009 (ip), vehicle: saline with Tween-80

Measured: T/C

COCCOCCOCCOCCOC(=O)CCn1cc(F)c(=O)[nH]c1=O
inactive: dose: 45.0 mg/kg/injection, schedule: Q04DX002 (ip), vehicle: saline 99 % of control | dose: 90.0 mg/kg/injection, schedule: Q04DX002 (ip), vehicle: saline 106 % of control | dose: 180.0 mg/kg/injection, schedule: Q04DX002 (ip), vehicle: saline 101 % of control | dose: 360.0 mg/kg/injection, schedule: Q04DX002 (ip), vehicle: saline 108 % of control

COc1ccc(C2OC3=C(Nc4ccc([N+](=O)[O-])cc4N3)C2=O)c(OC)c1 (stereo unspecified)
inactive: [1] 93 % of control | [2] 101 % of control | [3] 101 % of control

CCN(CC)CCN(C(=O)OCCOC(=O)N(CCN(CC)CC)c1cccc2sc3ccccc3c(=O)c12)c1cccc2sc3ccccc3c(=O)c12
inactive: [4] 99 % of control | [5] 106 % of control | [6] 105 % of control

CC1=C[C@H]2[C@@]3(O)[C@H](C)[C@@H](OC(=O)/C=C\c4ccccc4)[C@]4(OC(=O)/C=C\c5ccccc5)[C@H]([C@@H]3C=C(COC(=O)/C=C\c3ccccc3)C[C@]2(O)C1=O)C4(C)C
inactive: dose: 0.18 mg/kg/injection, schedule: Q01DX005 (ip), vehicle: saline + alcohol 92 % of control | dose: 0.35 mg/kg/injection, schedule: Q01DX005 (ip), vehicle: saline + alcohol 95 % of control | dose: 0.7 mg/kg/injection, schedule: Q01DX005 (ip), vehicle: saline + alcohol 95 % of control | dose: 1.4 mg/kg/injection, schedule: Q01DX005 (ip), vehicle: saline + alcohol 95 % of control | dose: 2.8 mg/kg/injection, schedule: Q01DX005 (ip), vehicle: saline + alcohol 102 % of control

CCOC(=O)c1c(C(C)=O)cnc2c(C#N)cnn12
inactive: [4] 98 % of control | [5] 98 % of control | [6] 91 % of control

CSC1(C)C(=O)Nc2cccc([N+](=O)[O-])c21 (stereo unspecified)
inactive: dose: 100.0 mg/kg/injection, schedule: Q01DX001 (ip), vehicle: saline with Tween-80 100 % of control | dose: 200.0 mg/kg/injection, schedule: Q01DX001 (ip), vehicle: saline with Tween-80 93 % of control | dose: 400.0 mg/kg/injection, schedule: Q01DX001 (ip), vehicle: saline with Tween-80 100 % of control

CCC1=C(c2cccc(OC(C)=O)c2)C(C)c2ccc(OC(C)=O)cc21 (stereo unspecified)
inactive: [7] 96 % of control | dose: 120.0 mg/kg/injection, schedule: Q01DX005 (ip), vehicle: Klucel (hydroxypropylcellulose) (HPC) 95 % of control | dose: 240.0 mg/kg/injection, schedule: Q01DX005 (ip), vehicle: Klucel (hydroxypropylcellulose) (HPC) 95 % of control

CSc1snc2c1c(=O)n(C)c(=O)n2C
inactive: dose: 25.0 mg/kg/injection, schedule: Q04DX002 (ip), vehicle: saline with Tween-80 98 % of control | dose: 50.0 mg/kg/injection, schedule: Q04DX002 (ip), vehicle: saline with Tween-80 101 % of control | dose: 100.0 mg/kg/injection, schedule: Q04DX002 (ip), vehicle: saline with Tween-80 99 % of control

FC(F)(F)C(OP(OC(C(F)(F)F)C(F)(F)F)OC(C(F)(F)F)C(F)(F)F)C(F)(F)F
inactive: [4] 101 % of control | [5] 92 % of control | [6] 92 % of control

O=S(=O)(NO)c1cccc(S(=O)(=O)NO)c1
inactive: dose: 25.0 mg/kg/injection, schedule: Q04DX003 (ip), vehicle: saline 110 % of control | dose: 50.0 mg/kg/injection, schedule: Q04DX003 (ip), vehicle: saline 115 % of control | [8] 110 % of control

O=c1oc(-c2cc([N+](=O)[O-])ccc2Cl)nc2ccccc12
inactive: dose: 33.0 mg/kg/injection, schedule: Q04DX003 (ip), vehicle: saline with Tween-80 100 % of control | dose: 50.0 mg/kg/injection, schedule: Q04DX003 (ip), vehicle: saline with Tween-80 100 % of control | dose: 75.0 mg/kg/injection, schedule: Q04DX003 (ip), vehicle: saline with Tween-80 99 % of control

c1c2c(cc3c1OCN(C1CC1)C3)OCN(C1CC1)C2
inactive: [9] 94 % of control | [10] 90 % of control | dose: 200.0 mg/kg/injection, schedule: Q01DX009 (ip), vehicle: saline with Tween-80 96 % of control

Cn1c(-c2nc3ccccc3n2C)nc2ccccc21
inactive: [4] 102 % of control | [5] 98 % of control | [6] 102 % of control

Cc1c2c(Cc3ccccc3)nccc2c(C)c2c1c1ccccc1n2Cc1ccccc1
inactive: dose: 6.25 mg/kg/injection, schedule: Q04DX003 (ip), vehicle: distilled water + Tween-80 87 % of control | dose: 12.5 mg/kg/injection, schedule: Q04DX003 (ip), vehicle: distilled water + Tween-80 88 % of control | dose: 50.0 mg/kg/injection, schedule: Q04DX003 (ip), vehicle: distilled water + Tween-80 86 % of control

O=C(CCCN1CCC(C(O)c2ccc(F)cc2)CC1)c1ccc(F)cc1 (stereo unspecified)
inactive: dose: 3.0 mg/kg/injection, schedule: Q01DX005 (ip), vehicle: saline with Tween-80 101 % of control | dose: 3.13 mg/kg/injection, schedule: Q01DX009 (ip), vehicle: saline with Tween-80 98 % of control | dose: 6.0 mg/kg/injection, schedule: Q01DX005 (ip), vehicle: saline with Tween-80 104 % of control | [11] 92 % of control | dose: 12.0 mg/kg/injection, schedule: Q01DX005 (ip), vehicle: saline with Tween-80 98 % of control | [12] 103 % of control | [13] 107 % of control | [4] 114 % of control | [9] 100 % of control | [10] 95 % of control

CN(C)c1ccc(C2OC3(CCCCC3)C[N+]23CCCC3)cc1 (stereo unspecified)
inactive: dose: 3.12 mg/kg/injection, schedule: Q01DX009 (ip), vehicle: saline with Tween-80 100 % of control | [11] 104 % of control | [12] 86 % of control

C=C1c2cccc(O)c2C(O)=C2C(=O)[C@]3(O)C(O)=C(C(N)=O)C(=O)[C@@H](N(C)C)[C@@H]3[C@@H](O)[C@H]12
inactive: dose: 21.6 mg/kg/injection, schedule: Q01DX005 (ip), vehicle: Klucel (hydroxypropylcellulose) (HPC) 105 % of control | dose: 25.0 mg/kg/injection, schedule: Q01DX005 (ip), vehicle: Klucel (hydroxypropylcellulose) (HPC) 105 % of control and 115 % of control | dose: 36.0 mg/kg/injection, schedule: Q01DX005 (ip), vehicle: Klucel (hydroxypropylcellulose) (HPC) 99 % of control and 106 % of control | [7] 102 % of control and 97 % of control | dose: 166.66 mg/kg/injection, schedule: Q01DX005 (ip), vehicle: Klucel (hydroxypropylcellulose) (HPC) 115 % of control | dose: 166.67 mg/kg/injection, schedule: Q01DX005 (ip), vehicle: Klucel (hydroxypropylcellulose) (HPC) 112 % of control | dose: 400.0 mg/kg/injection, schedule: Q01DX005 (ip), vehicle: Klucel (hydroxypropylcellulose) (HPC) 87 % of control

O=C(O)CCCC(O)(O)C(=O)O
inactive: [1] 108 % of control | [2] 94 % of control | [3] 96 % of control

CCOC([O-])=N/C(=N/[n+]1ccccc1)c1ccccc1
inactive: dose: 50.0 mg/kg/injection, schedule: Q01DX009 (ip), vehicle: Klucel (hydroxypropylcellulose) (HPC) 107 % of control | dose: 100.0 mg/kg/injection, schedule: Q01DX009 (ip), vehicle: Klucel (hydroxypropylcellulose) (HPC) 96 % of control | dose: 200.0 mg/kg/injection, schedule: Q01DX009 (ip), vehicle: Klucel (hydroxypropylcellulose) (HPC) 100 % of control

CCOc1cc(C)c(C(CC(=O)O)CC(=O)N(CCCl)CCCl)cc1C(C)C (stereo unspecified)
inactive: [8] 107 % of control | dose: 200.0 mg/kg/injection, schedule: Q04DX003 (ip), vehicle: saline 100 % of control | dose: 400.0 mg/kg/injection, schedule: Q04DX003 (ip), vehicle: saline 108 % of control

O=C(Nc1ccc(C2=NCCN2)cc1)c1ccc(C(=O)Nc2ccc(C3=NCCN3)cc2)c(Cl)c1
inactive: dose: 0.2 mg/kg/injection, schedule: Q01DX009 (ip), vehicle: saline with Tween-80 99 % of control | dose: 0.39 mg/kg/injection, schedule: Q01DX009 (ip), vehicle: saline with Tween-80 117 % of control | dose: 0.78 mg/kg/injection, schedule: Q01DX009 (ip), vehicle: saline with Tween-80 122 % of control | dose: 45.0 mg/kg/injection, schedule: Q04DX003 (ip), vehicle: saline 95 % of control
active: dose: 20.0 mg/kg/injection, schedule: Q01DX010 (ip), vehicle: water 163 % of control

CCCCN(CCCC)CC(O)c1cc(-c2ccc(Cl)cc2)nc(-c2ccc(Cl)cc2)c1 (stereo unspecified)
inactive: [12] 90 % of control | [13] 90 % of control | [9] 92 % of control and 93 % of control | [10] 90 % of control

CC(C)CC(C)C1CCC(C)C1CCC(C)OC=O (stereo unspecified)
inactive: [4] 102 % of control | [5] 114 % of control | [6] 98 % of control
